US12655116B2, “Substituted isophthalic acid diamides” (Bayer Aktiengesellschaft, priority 2020, dated 2026)

Tests used:
ABUTH [1] = assay: Pre-emergence herbicidal action against ABUTH; type: in vivo, Abutilon theophrasti; conditions: for Pre-emergence action against ABUTH (herbicidal activity): 80 g/ha, scored visually after 3 weeks vs untreated controls (100% = plants have died, 0% = like control plants); for Pre-emergence action against ABUTH (herbicidal activity in percent): dosage 20 g/ha, scored visually after 3 weeks vs untreated controls, 100% = plants have died, 0% = like control plants
Summary of the method: (§1)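 Sandy loam pots, seeds covered with soil, then surface-treated with WP or EC formulations at 600–800 l/ha water plus 0.2% wetting agent. Greenhouse, 3 weeks. Percent damage vs untreated controls.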

ALOMY [2] = assay: Pre-emergence herbicidal action against ALOMY; type: in vivo, Alopecurus myosuroides; conditions: 80 g/ha, pre-emergence, scored visually after 3 weeks vs untreated controls (100% = plants have died, 0% = like control plants)
Summary of the method: as §1

AMARE [3] = assay: Pre-emergence herbicidal action against AMARE; type: in vivo, Amaranthus retroflexus
Summary of the method: as §1

AVEFA = assay: Pre-emergence herbicidal action against AVEFA; type: in vivo, Avena fatua; conditions: 80 g/ha, pre-emergence
Summary of the method: as §1

ECHCG [4] = assay: Pre-emergence herbicidal action against ECHCG; type: in vivo, Echinochloa crus-galli
Summary of the method: as §1

MATIN [5] = assay: Pre-emergence herbicidal action against MATIN; type: in vivo, Matricaria inodora
Summary of the method: as §1

PHBPU [6] = assay: Pre-emergence herbicidal action against PHBPU; type: in vivo, Pharbitis purpurea
Excerpt: Seeds of monocotyledonous and dicotyledonous weed plants and crop plants are laid out in sandy loam soil in wood-fiber pots and covered with soil. The compounds of the invention, formulated in the form of wettable powders (WP) or as emulsion concentrates (EC), are then applied to the surface of the covering soil in the form of an aqueous suspension or emulsion at a water application rate equivalent to 600 to 800 l/ha, with addition of 0.2% wetting agent. After the treatment, the pots are placed in a greenhouse and kept under good growth conditions for the trial plants. The damage to the test plants is scored visually after a test period of 3 weeks by comparison with untreated controls (herbicidal activity in percent (%): 100% activity=the plants have died, 0% activity=like control plants). […] The tables below illustrate, in an illustrative manner, the post-emergence herbicidal action of the compounds of the invention, the herbicidal activity being stated in percent.

SETVI [7] = assay: Pre-emergence herbicidal action against SETVI; type: in vivo, Setaria viridis; conditions: dosage 80 g/ha
Summary of the method: as §1

VIOTR [8] = assay: Pre-emergence herbicidal action against VIOTR; type: in vivo, Viola tricolor
Summary of the method: as §1

DIGSA [9] = assay: Pre-emergence herbicidal action against DIGSA; type: in vivo, Digitaria sanguinalis
Summary of the method: as §1

ABUTH [10] = assay: Post-emergence herbicidal action against ABUTH; type: in vivo, Abutilon theophrasti; conditions: visual assessment about 3 weeks after treatment vs untreated controls
Summary of the method: (§2)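 Herbicidal action is a visual percentage rating (0% = as untreated control, 100% = plants dead) made roughly 3 weeks after treatment. Plants were grown in sandy loam in the greenhouse and treated at the one-leaf stage, 2 to 3 weeks post-sowing. Treatment was a foliar spray of wettable-powder or emulsion-concentrate formulations at 600 to 800 l/ha water plus 0.2% wetting agent.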

ALOMY [11] = assay: Post-emergence herbicidal action against ALOMY; type: in vivo, Alopecurus myosuroides; conditions: dosage 20 g/ha, visual assessment about 3 weeks after treatment vs untreated controls
Summary of the method: as §2

AMARE [12] = assay: Post-emergence herbicidal action against AMARE; type: in vivo, Amaranthus retroflexus; conditions: 20 g/ha, visual assessment about 3 weeks after treatment, 100% = plants have died, 0% = like control plants
Summary of the method: as §2

ECHCG [13] = assay: Post-emergence herbicidal action against ECHCG; type: in vivo, Echinochloa crus-galli
Summary of the method: as §2

MATIN [14] = assay: Post-emergence herbicidal action against MATIN; type: in vivo, Matricaria inodora
Summary of the method: as §2

PHBPU [15] = assay: Post-emergence herbicidal action against PHBPU; type: in vivo, Pharbitis purpurea
Summary of the method: as §2

SETVI [16] = assay: Post-emergence herbicidal action against SETVI; type: in vivo, Setaria viridis; conditions: dosage 20 g/ha
Summary of the method: as §2

VIOTR [17] = assay: Post-emergence herbicidal action against VIOTR; type: in vivo, Viola tricolor; conditions: 20 g/ha
Summary of the method: as §2

DIGSA [18] = assay: Post-emergence herbicidal action against DIGSA; type: in vivo, Digitaria sanguinalis; conditions: for Post-emergence action against DIGSA: 20 g/ha
Summary of the method: as §2

VERPE = assay: Pre-emergence herbicidal action against VERPE; type: in vivo, Veronica persica; conditions: dosage 80 g/ha
Summary of the method: as §1

[19] = 20 g/ha, scored visually after 3 weeks vs untreated controls, 100% = plants have died, 0% = like control plants
[20] = 80 g/ha, scored visually after 3 weeks vs untreated controls (100% = plants have died, 0% = like control plants)

Structure (SMILES)	Pre-emergence action against ABUTH (herbicidal activity) (ABUTH [1])	Pre-emergence action against ABUTH (herbicidal activity in percent) (ABUTH [1])	Pre-emergence action against AMARE in % (AMARE [3]; [19])	Pre-emergence action against AMARE in % (AMARE [3]; [20])	Pre-emergence action against ECHCG in % (ECHCG [4]; 80 g/ha)	Pre-emergence action against MATIN in % (MATIN [5]; dosage 20 g/ha)	Pre-emergence action against MATIN in % (MATIN [5]; dosage 80 g/ha)	Pre-emergence action against PHBPU in % (PHBPU [6]; dosage 20 g/ha)	Pre-emergence action against PHBPU in % (PHBPU [6]; dosage 80 g/ha)	Pre-emergence action against SETVI in % (SETVI [7])	Pre-emergence action against VIOTR in % (VIOTR [8]; dosage 20 g/ha)	Pre-emergence action against VIOTR in % (VIOTR [8]; dosage 80 g/ha)	Pre-emergence action against DIGSA in % (DIGSA [9]; dosage 20 g/ha)	Pre-emergence action against DIGSA in % (DIGSA [9]; dosage 80 g/ha)	Post-emergence action against ABUTH in % (ABUTH [10]; dosage 20 g/ha)	Post-emergence action against ECHCG in % (ECHCG [13]; dosage 20 g/ha)	Post-emergence action against MATIN in % (MATIN [14]; dosage 20 g/ha)	Post-emergence action against PHBPU in % (PHBPU [15]; dosage 20 g/ha)	Post-emergence action against VIOTR in % (VIOTR [17])	Post-emergence action against DIGSA (DIGSA [18])	other results
CCn1nnnc1NC(=O)c1ccc(C(F)(F)F)c(C(=O)NCC2CC2)c1Br [Example 2-210]	100%	100%	100%	100%	100%	100%	100%	80%	90%	100%	100%	100%	100%	100%	80%	90%	90%	90%	90%	90%	Pre-emergence action against ALOMY (herbicidal activity) (ALOMY [2]): 100%; Pre-emergence action against AVEFA in % (AVEFA): 90%; Pre-emergence action against ECHCG in % (ECHCG [4]; 20 g/ha): 80%; Post-emergence action against ABUTH in % (ABUTH [10]; dosage 5 g/ha): 80%; Post-emergence action against ALOMY in % (ALOMY [11]): 90%; Post-emergence action at 20 g/ha against AMARE in % (AMARE [12]): 100%; Post-emergence action against SETVI in % (SETVI [16]): 80%; Post-emergence action against DIGSA in % (DIGSA [18]; 5 g/ha): 80%
CCn1nnnc1NC(=O)c1ccc(C(F)(F)F)c(C(=O)NC(C)C2CC2)c1Br (stereo not shown) [Example 2-213]	100%	100%	100%	100%	90%	100%	100%	80%	90%	100%	100%	100%	80%	100%	80%	80%	100%	80%	90%	90%	Pre-emergence action against VERPE in % (VERPE): 90%; Post-emergence action against ECHCG in % (ECHCG [13]; dosage 5 g/ha): 80%; Post-emergence action against MATIN in % (MATIN [14]; dosage 5 g/ha): 90%; Post-emergence action against PHBPU in % (PHBPU [15]; dosage 5 g/ha): 80%
